Source: patent publication US20230146395A1, “Substituted Pyrimidines and Uses Thereof” (Verge Analytics, Inc., priority 2020, published 2023)
Where a name gives a salt, the structure may show the parent alone.

Experiments:
PI3Kδ = biological target: T1, PI3Kδ (Homo sapiens, UniProt O00329); test: Inhibition of PI3K isoforms: PI3Kδ (microfluidic electrophoresis kinase assay, PIP2/PS substrate); type: biochemical; details: p110δ/p85α, ATP 90 μM; read-out: PI3Kd IC50
T1 construct: Full-length N-terminal; GST (N); host or cells: SF9 cells (baculovirus)
T1 sequence (O00329 whole entry, canonical isoform): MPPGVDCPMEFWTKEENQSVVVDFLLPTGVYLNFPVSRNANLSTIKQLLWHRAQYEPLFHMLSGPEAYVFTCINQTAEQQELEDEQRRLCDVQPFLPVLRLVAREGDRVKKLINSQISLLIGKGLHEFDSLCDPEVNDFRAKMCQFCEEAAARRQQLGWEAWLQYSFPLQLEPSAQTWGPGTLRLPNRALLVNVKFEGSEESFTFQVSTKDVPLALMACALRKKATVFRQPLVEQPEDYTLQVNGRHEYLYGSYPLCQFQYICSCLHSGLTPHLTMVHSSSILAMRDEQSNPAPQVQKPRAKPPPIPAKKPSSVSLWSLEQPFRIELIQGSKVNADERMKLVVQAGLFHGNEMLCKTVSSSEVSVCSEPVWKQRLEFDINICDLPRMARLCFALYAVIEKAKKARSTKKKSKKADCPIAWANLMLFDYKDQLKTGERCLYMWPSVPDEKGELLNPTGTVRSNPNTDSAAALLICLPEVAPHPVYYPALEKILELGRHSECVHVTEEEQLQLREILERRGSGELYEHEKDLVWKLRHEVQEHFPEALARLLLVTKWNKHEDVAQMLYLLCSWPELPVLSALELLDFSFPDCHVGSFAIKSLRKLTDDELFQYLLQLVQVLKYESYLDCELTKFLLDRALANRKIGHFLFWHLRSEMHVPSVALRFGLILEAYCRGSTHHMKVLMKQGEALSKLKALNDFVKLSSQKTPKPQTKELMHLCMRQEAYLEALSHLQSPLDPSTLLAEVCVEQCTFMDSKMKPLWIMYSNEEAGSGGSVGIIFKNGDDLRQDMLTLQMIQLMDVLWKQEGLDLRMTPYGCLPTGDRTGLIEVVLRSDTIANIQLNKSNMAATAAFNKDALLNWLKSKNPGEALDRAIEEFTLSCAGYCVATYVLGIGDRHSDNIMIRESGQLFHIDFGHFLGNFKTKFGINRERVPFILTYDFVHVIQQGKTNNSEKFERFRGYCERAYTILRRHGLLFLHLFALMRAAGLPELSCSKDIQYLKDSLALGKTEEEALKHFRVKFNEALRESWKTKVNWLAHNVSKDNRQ
T1 sequence (P27986 whole entry partner, canonical isoform): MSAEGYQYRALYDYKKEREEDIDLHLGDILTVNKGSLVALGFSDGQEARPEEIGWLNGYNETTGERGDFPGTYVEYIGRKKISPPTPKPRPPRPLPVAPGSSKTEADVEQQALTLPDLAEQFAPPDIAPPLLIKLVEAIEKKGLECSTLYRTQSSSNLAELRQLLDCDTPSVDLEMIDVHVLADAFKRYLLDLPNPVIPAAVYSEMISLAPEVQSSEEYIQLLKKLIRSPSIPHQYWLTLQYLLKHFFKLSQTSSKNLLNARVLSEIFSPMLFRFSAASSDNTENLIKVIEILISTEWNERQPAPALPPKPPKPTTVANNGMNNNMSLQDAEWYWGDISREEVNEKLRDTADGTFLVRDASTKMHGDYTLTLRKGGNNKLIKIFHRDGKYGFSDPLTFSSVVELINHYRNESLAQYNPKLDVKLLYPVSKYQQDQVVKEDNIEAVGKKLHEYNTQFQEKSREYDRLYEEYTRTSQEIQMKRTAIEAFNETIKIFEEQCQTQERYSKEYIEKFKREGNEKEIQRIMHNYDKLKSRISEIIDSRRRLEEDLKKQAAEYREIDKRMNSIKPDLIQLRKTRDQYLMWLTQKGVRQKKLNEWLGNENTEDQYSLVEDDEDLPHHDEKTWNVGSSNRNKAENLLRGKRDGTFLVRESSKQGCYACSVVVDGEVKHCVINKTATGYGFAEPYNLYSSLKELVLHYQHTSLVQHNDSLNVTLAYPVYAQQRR
Protocol: The kinase substrate was prepared by mixing and sonicating fluorescently-labeled phosphatidylinositol 4,5-phosphate (PIP2) with phospho-L-[…]:20 ratio in 50 mM HEPES buffer pH7.5. The kinase reactions were assembled in 384-well plates (Greiner) in a total volume of […] as follows. The kinase proteins were pre-diluted in an assay buffer comprising 50 mM HEPES, pH 7.5, 0.012% CHAPS, 1 mM DTT, 10 mM Na3VaO4, 10 mM 3-GP, 3 mM MgCl2, and 40 mM NaCl2, and dispensed into a 384-well plate (10 μL per well). Test compounds were serially pre-diluted in DMSO and added to the protein samples by acoustic dispensing (Labcyte Echo). The concentration of DMSO was equalized to 1% in all samples. All test compounds were tested at 12 concentrations. The control samples (0%-inhibition in the absence of inhibitor, DMSO only) and 100%-inhibition (in the absence of enzyme) were assembled in replicates of four and were used to calculate %-inhibition in the presence of test compounds. The reactions were initiated by addition of 10 μL of the PIP2/PS substrate supplemented with ATP. The final concentration of enzymes was 0.5 nM (PI3Kα), 1 nM (PI3Kβ), 10 nM (PI3Kγ), and 0.25 nM (PI3Kδ). The final concentration of ATP was 90 μM (PI3Kα), 60 μM (PI3Kβ), 100 μM (PI3Kγ), and 90 μM (PI3Kδ). The final concentration of PIP2/PS substrate was 1 μM (PIP2). The kinase reactions were allowed to proceed for 3 h at room temperature. Following incubation, the reactions were quenched by addition of 50 μL of termination buffer (100 mM HEPES, pH 7.5, 0.01% Triton X-100, 20 mM EDTA). Terminated plates were analyzed on a microfluidic electrophoresis instrument (Caliper LabChip® 3000, Caliper Life Sciences/Perkin Elmer). The change in the relative fluorescence intensity of the PI(4,5)P substrate and PI(3,4,5)P product peaks was measured. The activity in each test sample was determined as the product to sum ratio (PSR): P/(S+P), where P is the peak height of the product, and S is the peak height of the substrate. Percent inhibition (Pinh) was determined using the following equation: Pinh=(PSR0% inh-PSRcompound)/(PSR0% inh-PSR100% inh)*100 in which PSRcompound is the product/sum ratio in the presence of compound, PSR0% inh is the product/sum ratio in the absence of compound, and the PSR100% inh is the product/sum ratio in the absence of the enzyme. […] (Pinh versus compound concentration) were fitted by a four-parameter sigmoid dose-response model using XLfit software (IDBS).

PI3Kα = biological target: T2, PI3Kα (Homo sapiens, UniProt P42336); test: Inhibition of PI3K isoforms: PI3Kα (microfluidic electrophoresis kinase assay, PIP2/PS substrate); type: biochemical; details: p110α/p85α, ATP 90 μM; read-out: PI3Ka IC50
T2 construct: Full-length N-terminal; FLAG (N); host or cells: SF9 cells (baculovirus)
T2 sequence (P42336 whole entry, canonical isoform): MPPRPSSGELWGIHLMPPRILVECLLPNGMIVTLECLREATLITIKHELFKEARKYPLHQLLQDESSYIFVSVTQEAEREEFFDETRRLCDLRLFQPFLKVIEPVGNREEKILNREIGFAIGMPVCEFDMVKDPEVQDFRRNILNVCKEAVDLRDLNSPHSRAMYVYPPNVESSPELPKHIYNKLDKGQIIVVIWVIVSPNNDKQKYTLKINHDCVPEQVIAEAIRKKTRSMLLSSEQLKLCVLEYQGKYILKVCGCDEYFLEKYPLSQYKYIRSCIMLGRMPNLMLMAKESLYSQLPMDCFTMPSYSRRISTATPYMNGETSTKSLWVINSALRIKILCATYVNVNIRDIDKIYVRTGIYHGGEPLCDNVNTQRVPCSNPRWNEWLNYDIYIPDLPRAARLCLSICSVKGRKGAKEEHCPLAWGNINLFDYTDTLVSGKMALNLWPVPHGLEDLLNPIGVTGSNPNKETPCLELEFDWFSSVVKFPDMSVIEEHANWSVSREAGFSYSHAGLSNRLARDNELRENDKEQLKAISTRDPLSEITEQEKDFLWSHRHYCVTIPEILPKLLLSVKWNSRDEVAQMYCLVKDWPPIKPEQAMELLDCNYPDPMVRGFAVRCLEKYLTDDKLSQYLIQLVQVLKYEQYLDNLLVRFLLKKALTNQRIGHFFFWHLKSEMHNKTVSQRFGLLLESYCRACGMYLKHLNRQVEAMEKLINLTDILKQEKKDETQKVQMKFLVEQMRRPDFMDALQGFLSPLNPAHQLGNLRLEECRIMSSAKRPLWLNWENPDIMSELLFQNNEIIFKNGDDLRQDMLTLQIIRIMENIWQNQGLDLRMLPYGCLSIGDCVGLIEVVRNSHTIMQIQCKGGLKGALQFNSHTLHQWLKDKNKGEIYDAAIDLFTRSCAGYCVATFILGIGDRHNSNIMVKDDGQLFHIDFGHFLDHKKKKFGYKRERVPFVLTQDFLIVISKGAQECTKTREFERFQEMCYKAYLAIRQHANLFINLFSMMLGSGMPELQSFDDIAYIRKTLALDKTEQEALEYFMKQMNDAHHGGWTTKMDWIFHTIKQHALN
T2 sequence (P27986 whole entry partner, canonical isoform): as the sequence (P27986 whole entry partner, canonical isoform) above
Protocol: (§1) The kinase substrate was prepared by mixing and sonicating fluorescently-labeled phosphatidylinositol 4,5-phosphate (PIP2) with phospho-L-serine (PS) at 1:20 ratio in 50 mM HEPES buffer pH7.5.
The kinase reactions were assembled in 384-well plates (Greiner) in a total volume of […] as follows. The kinase proteins were pre-diluted in an assay buffer comprising 50 mM HEPES, pH 7.5, 0.012% CHAPS, 1 mM DTT, 10 mM Na3VaO4, 10 mM 3-GP, 3 mM MgCl2, and 40 mM NaCl2, and dispensed into a 384-well plate (10 μL per well). Test compounds were serially pre-diluted in DMSO and added to the protein samples by acoustic dispensing (Labcyte Echo). The concentration of DMSO was equalized to 1% in all samples. All test compounds were tested at 12 concentrations. The control samples (0%-inhibition in the absence of inhibitor, DMSO only) and 100%-inhibition (in the absence of enzyme) were assembled in replicates of four and were used to calculate %-inhibition in the presence of test compounds. The reactions were initiated by addition of 10 μL of the PIP2/PS substrate supplemented with ATP. The final concentration of enzymes was 0.5 nM (PI3Kα), 1 nM (PI3Kβ), 10 nM (PI3Kγ), and 0.25 nM (PI3Kδ). The final concentration of ATP was 90 μM (PI3Kα), 60 μM (PI3Kβ), 100 μM (PI3Kγ), and 90 μM (PI3Kδ). The final concentration of PIP2/PS substrate was 1 μM (PIP2). The kinase reactions were allowed to proceed for 3 h at room temperature. Following incubation, the reactions were quenched by addition of 50 μL of termination buffer (100 mM HEPES, pH 7.5, 0.01% Triton X-100, 20 mM EDTA). Terminated plates were analyzed on a microfluidic electrophoresis instrument (Caliper LabChip® 3000, Caliper Life Sciences/Perkin Elmer). The change in the relative fluorescence intensity of the PI(4,5)P substrate and PI(3,4,5)P product peaks was measured. The activity in each test sample was determined as the product to sum ratio (PSR): P/(S+P), where P is the peak height of the product, and S is the peak height of the substrate. Percent inhibition (Pinh) was determined using the following equation:
Pinh=(PSR0% inh−PSRcompound)/(PSR0% inh−PSR100% inh)*100
in which PSRcompound is the product/sum ratio in the presence of compound, PSR0% inh is the product/sum ratio in the absence of compound, and the PSR100% inh is the product/sum ratio in the absence of the enzyme.

PI3Kβ = biological target: T3, PI3Kβ (Homo sapiens, UniProt P42338); test: Inhibition of PI3K isoforms: PI3Kβ (microfluidic electrophoresis kinase assay, PIP2/PS substrate); type: biochemical; details: p110β/p85α, ATP 60 μM; read-out: PI3Kb IC50
T3 construct: Full-length N-terminal; GST (N); host or cells: SF9 cells (baculovirus)
T3 sequence (P42338 whole entry, canonical isoform): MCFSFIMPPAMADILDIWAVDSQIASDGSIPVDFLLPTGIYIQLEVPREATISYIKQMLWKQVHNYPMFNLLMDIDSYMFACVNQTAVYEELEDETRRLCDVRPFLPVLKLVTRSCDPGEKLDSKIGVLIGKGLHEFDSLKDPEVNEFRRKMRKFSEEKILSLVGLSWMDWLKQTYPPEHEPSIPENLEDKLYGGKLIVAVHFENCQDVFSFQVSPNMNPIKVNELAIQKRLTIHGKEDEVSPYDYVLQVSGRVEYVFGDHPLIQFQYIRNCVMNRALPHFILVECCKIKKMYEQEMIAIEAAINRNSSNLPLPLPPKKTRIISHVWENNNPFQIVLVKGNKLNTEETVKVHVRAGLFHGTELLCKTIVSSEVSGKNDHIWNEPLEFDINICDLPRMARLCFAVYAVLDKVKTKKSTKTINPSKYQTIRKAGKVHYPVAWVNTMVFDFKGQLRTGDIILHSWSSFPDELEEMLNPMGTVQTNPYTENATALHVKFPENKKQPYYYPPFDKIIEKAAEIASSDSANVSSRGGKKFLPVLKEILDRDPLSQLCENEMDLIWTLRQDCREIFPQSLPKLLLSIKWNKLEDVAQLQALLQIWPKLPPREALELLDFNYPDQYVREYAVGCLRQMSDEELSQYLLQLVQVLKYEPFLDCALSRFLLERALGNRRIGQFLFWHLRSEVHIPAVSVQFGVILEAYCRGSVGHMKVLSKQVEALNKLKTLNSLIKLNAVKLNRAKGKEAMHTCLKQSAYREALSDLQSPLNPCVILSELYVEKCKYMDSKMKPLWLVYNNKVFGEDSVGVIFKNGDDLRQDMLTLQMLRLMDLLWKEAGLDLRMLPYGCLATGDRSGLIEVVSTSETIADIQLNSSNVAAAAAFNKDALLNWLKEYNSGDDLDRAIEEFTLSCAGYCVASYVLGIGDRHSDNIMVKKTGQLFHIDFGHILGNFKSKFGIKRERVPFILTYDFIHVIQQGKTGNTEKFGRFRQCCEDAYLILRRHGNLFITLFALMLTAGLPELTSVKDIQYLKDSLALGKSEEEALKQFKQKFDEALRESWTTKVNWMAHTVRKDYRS
T3 sequence (P27986 whole entry partner, canonical isoform): as the sequence (P27986 whole entry partner, canonical isoform) above
Protocol: as §1
The kinase reactions were assembled in 384-well plates (Greiner) in a total volume of […] as follows. The kinase proteins were pre-diluted in an assay buffer comprising 50 mM HEPES, pH 7.5, 0.012% CHAPS, 1 mM DTT, 10 mM Na3VaO4, 10 mM 3-GP, 3 mM MgCl2, and 40 mM NaCl2, and dispensed into a 384-well plate (10 μL per well). Test compounds were serially pre-diluted in DMSO and added to the protein samples by acoustic dispensing (Labcyte Echo). The concentration of DMSO was equalized to 1% in all samples. All test compounds were tested at 12 concentrations. […] Terminated plates were analyzed on a microfluidic electrophoresis instrument (Caliper LabChip® 3000, Caliper Life Sciences/Perkin Elmer). The change in the relative fluorescence intensity of the PI(4,5)P substrate and PI(3,4,5)P product peaks was measured. The activity in each test sample was determined as the product to sum ratio (PSR): P/(S+P), where P is the peak height of the product, and S is the peak height of the substrate. Percent inhibition (Pinh) was determined using the following equation: […]

[1] = system: ALS patient (SOD1 A4V) iPSC derived motor neurons; test: iPSC MN Survival assay (GFP imaging, six days, hazard ratio from Cox regression); type: cell-based; details: Homo sapiens, survival rescue, read-out: C9 iPSC MN Significant survival rescue EC50

Compound: c1ccc(-c2cc(Nc3nc(N4CCOCC4)c4oc(-c5ccncc5)cc4n3)[nH]n2)cc1 [Compound 1, 4-morpholino-N-(3-phenyl-1H-pyrazol-5-yl)-6-(pyridin-4-yl)furo[3,2-d]pyrimidin-2-amine hydrochloride]
- IC50 (PI3Kδ): 2710 nM
- IC50 (PI3Kα): 6780 nM
- IC50 (PI3Kβ): > 10000 nM
- EC50 [1]: 1000 nM
